In one test the target is JNK1 (Homo sapiens (Human), UniProt P45983). Nature of the test: In Vitro JNK1 Assay (TR-FRET, phosphorylation of GST-c-Jun). It is filed as biochemical. The following applies: 0.2 nM active JNK1 kinase, 26.7 nM GST-c-Jun, 2 μM ATP, 30 min at room temperature. On the procedure:
Phosphorylation of GST-c-Jun protein (amino acid residues 1-79) was measured as JNK1 activity. […] The reaction buffer contained 50 mM HEPES, pH […], 1 mM DTT, 0.1 mM Na3VO4 and 0.2 mg/mL BSA. After 30 min. incubation at room temperature, the reaction was terminated by adding buffer containing 8 mM EDTA and a polyclonal anti-phospho-c-Jun antibody (Cell Signaling #9261L), followed by an additional incubation of 30 min. at room temperature. […] Time-resolved Fluorescence Resonance Energy Transfer (TR-FRET) signals were measured 1 hr. later on the EnVision reader (Perkin Elmer). Compound potency was assessed at 10 serially diluted concentrations. Percentage of inhibition at each concentration was determined to generate an IC50 value for each compound.

Test [1] deals with phospho(Ser63)-c-jun in HK-2 cells. Nature of the test: Cell-Based Assay for JNK Inhibitors (in-cell ELISA, phospho(Ser63)-c-jun after TNFα). The following applies: HK-2 cells (human proximal tubule cells), 60 minutes compound, then 10 ng/mL TNFα for 30 minutes. On the procedure: Cell-Based Assay for JNK Inhibitors
The cell-based assay employed the in-cell ELISA method to determine the ability of compounds to prevent the generation of phospho(Ser63)-c-jun in HK-2 cells (human proximal tubule cells) in response to stimulation with tumor necrosis factor α (TNFα). In brief, for quantification of phospho(Ser63)-c-jun, the cells (in 96-well format) were fixed and permeablized then incubated sequentially with a rabbit anti-phospho-c-jun First Antibody specific for the presence of the phospho-Ser63 epitope and a donkey anti-rabbit IgG Second Antibody linked to horseradish peroxidase (HRP) for colorimetric quantitation of binding. […] Blank wells received no TNFα stimulation or compound. Additional Control wells received TNFα stimulation, but no compound.
Stock cultures of HK-2 cells (ATCC, Manassas, Va.) were grown under a 5% CO2/[…] atmosphere at 37 degrees C. in Keratinocyte-SFM medium (KSFM, Invitrogen, Grand Island, N.Y.) containing 5 μg/L epidermal growth factor and 5 mg/L bovine pituitary extract (both supplied with the medium), additionally supplemented with 10% (v/v) fetal calf serum (FCS; Invitrogen, Grand Island, N.Y.) and 1% (v/v) antibiotic-antimycotic (ABAM: Sigma, St. Louis, Mo.). For assays, cells were seeded in collagen coated 96-well polystyrene plates (BD Biosciences, Franklin Lakes, N.J.) at a density of 40,000 cells/well and cultured for 24 h in the same medium (100 μL/well) followed by a further 16-24 h in 100 μL of similar medium, but without FCS. […] Plates were then allowed to stand at room temperature for 20 minutes before being washed with 200 μL/well of PBS. (Further steps were performed immediately or the plates were stored at 4 degrees C. and the assay completed the next day.) To each well was added 100 μL 1% (v/v) TritonX-100 (Sigma, St. Louis, Mo.) in PBS followed by 20 minutes standing at room temperature, washing with 200 μL/well PBS, the addition of 100 μL/well of Quenching buffer (1% (v/v) hydrogen peroxide (Sigma, St. Louis, Mo.) and 0.1% (w/v) sodium azide (Fisher Scientific, Fair Lawn, N.J.)) in PBS and a further 20 minutes at room temperature. Plates were then washed twice with 200 μL/well of 0.1% (v/v) Tween-20 (Teknova, Hollister, Calif.) in PBS before addition of 200 μL/well of 2% BSA/0.1% Tween-20 in PBS and a further 1 hour at room temperature. […] After a further one hour, rabbit anti-phospho-c-jun-Ser63 is added directly to the solution in the Blank wells resulting in 1:250 dilution of this antibody. Plates were then placed on a slowly rotating platform at 4 degrees C. overnight. Wells were then washed thrice with 200 μL/well PBS/0.1% Tween-20. After addition of the third wash, the plates were placed on a slowly rotating platform for 15 minutes at room temperature. The final PBS/Tween20 wash was then replaced with 100 μL/well of donkey anti-rabbit HRP-labeled Second Antibody (Jackson ImmunoResearch Laboratory, West Grove, Pa.) diluted 1:10,000 in Antibody Dilution Buffer and the plates placed on a slowly rotating platform for 1 hour at room temperature. Wells were then washed four times with 200 μL/well PBS/0.1% Tween-20, including slow rotation for 30 minutes for the third wash and 10 minutes for the final wash. The wells were then washed once with 200 μL PBS without Tween-20. […] Absorbance was determined at a 450 nm wavelength using a spectrophotometer (Molecular Devices SpectraMax 250).
Background: An ELISA detects its analyte on a solid surface through an enzyme-linked reagent.

Counter-ions that a name gives are not always drawn.

Chain of JNK1 (P45983 whole entry, the tested form may be a part): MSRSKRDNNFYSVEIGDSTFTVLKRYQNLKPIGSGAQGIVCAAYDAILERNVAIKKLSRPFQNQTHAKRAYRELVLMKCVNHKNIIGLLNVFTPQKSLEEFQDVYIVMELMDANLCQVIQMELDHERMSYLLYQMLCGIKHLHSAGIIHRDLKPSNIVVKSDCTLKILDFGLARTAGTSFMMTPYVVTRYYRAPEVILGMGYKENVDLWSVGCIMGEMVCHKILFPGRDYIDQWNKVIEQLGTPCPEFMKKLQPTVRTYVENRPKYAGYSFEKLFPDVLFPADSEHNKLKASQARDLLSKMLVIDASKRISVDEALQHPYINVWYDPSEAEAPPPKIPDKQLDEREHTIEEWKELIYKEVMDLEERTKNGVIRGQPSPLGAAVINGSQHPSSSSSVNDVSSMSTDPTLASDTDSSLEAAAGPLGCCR

By IC50 is commonly meant the concentration that gives 50% inhibition. High values mean weaker potency in that assay, low ones greater potency in that assay. In general, EC50 refers to the concentration needed to bring the measured effect to its halfway point. Lower therefore signals an effect from little substance. Take `COC(=O)c1c(CNC(=O)c2ccc(N3CCOCC3)nc2)c(=O)c2ccc(C(F)(F)F)nc2n1-c1ccccc1` [Example I-152, 3-{[(6-Morpholin-4-yl-pyridine-3-carbonyl)-amino]-methyl}-4-oxo-1-phenyl-7-trifluoromethyl-1,4-dihydro-[1,8]naphthyridine-2-carboxylic acid methyl ester]: 18 nM corresponded to half-maximal inhibition against JNK1 (IC50). For the same compound, the response in test [1] was half-maximal at 7800 nM (EC50). The matching figures for `O=C(NCc1cn(-c2ccccc2)c2cc(Cl)ccc2c1=O)c1ccnc(N2CCCC2)c1` [Example I-32, N-(7-Chloro-4-oxo-1-phenyl-1,4-dihydro-quinolin-3-ylmethyl)-2-pyrrolidin-1-yl-isonicotinamide]: 38 nM and 29000 nM. On the same counts, the results for `CS(=O)(=O)C1CCN(c2ccc(C(=O)NCc3cn(-c4ccccc4)c4cc(Cl)ccc4c3=O)cn2)CC1` [Example I-69, 4-Methanesulfonyl-3,4,5,6-tetrahydro-2H-[1,2′]bipyridinyl-5′-carboxylic acid (7-chloro-4-oxo-1-phenyl-1,4-dihydro-quinolin-3-ylmethyl)-amide] are 24 nM and 39000 nM. On the same counts, the results for `COC(=O)c1c(CNc2ncnc3ccccc23)c(=O)c2ccc(Cl)cc2n1-c1ccccc1` [Example I-208, 7-Chloro-4-oxo-1-phenyl-3-(quinazolin-4-ylaminomethyl)-1,4-dihydro-quinoline-2-carboxylic acid methyl ester] are 60 nM and 8400 nM.

`COC(=O)c1c(CNC(=O)C2CCN(C(=O)OC(C)(C)C)CC2)c(=O)c2ccc(Cl)cc2n1-c1ccccc1` [Example I-128, 3-{[(1-tert-Butoxycarbonyl-piperidine-4-carbonyl)-amino]-methyl}-7-chloro-4-oxo-1-phenyl-1,4-dihydro-quinoline-2-carboxylic acid methyl ester] had an IC50 at JNK1 of 35 nM. Moreover, in test [1], the EC50 turned out to be 100000 nM. In turn, `O=C(NCc1cn(-c2ccccc2F)c2cc(F)ccc2c1=O)c1cnn(-c2ccccc2)c1` [Example I-103, 1-Phenyl-1H-pyrazole-4-carboxylic acid [7-fluoro-1-(2-fluoro-phenyl)-4-oxo-1,4-dihydro-quinolin-3-ylmethyl]-amide] showed a 50% effective concentration (EC50) in test [1] of 12000 nM. The same measure, in the same setting: as for `O=C(NCc1cn(-c2ccccc2)c2cc(Cl)ccc2c1=O)c1ccc(N2C[C@@H]3C[C@H]2CN3)nc1` (stereo in doubt) [Example I-89, trifluoroacetate], the figure is 31000 nM; as for `COC(=O)c1c(CNC(=O)c2cnc(N3CCOCC3)s2)c(=O)c2ccc(Cl)cc2n1-c1ccccc1` [Example I-116, Chloro-3-{[(2-morpholin-4-yl-thiazole-5-carbonyl)-amino]-methyl}-4-oxo-1-phenyl-1,4-dihydro-quinoline-2-carboxylic acid methyl ester], 2200 nM. For the compound `NC1CCN(c2ccc(C(=O)NCc3cn(-c4ccccc4)c4cc(Cl)ccc4c3=O)cn2)CC1` [Example I-90, 4-Amino-3,4,5,6-tetrahydro-2H-[1,2′]bipyridinyl-5′-carboxylic acid (7-chloro-4-oxo-1-phenyl-1,4-dihydro-quinolin-3-ylmethyl)-amide trifluoroacetate], the 50% inhibitory concentration (IC50) against JNK1 came to 130 nM.

As for `O=C(NCc1cn(-c2ccccc2)c2cc(Cl)ccc2c1=O)NC1CCN(S(=O)(=O)c2ccccc2)CC1` [Example I-196, 1-(7-Chloro-4-oxo-1-phenyl-1,4-dihydro-quinolin-3-ylmethyl)-3-(1-phenylsulfonyl-piperidin-4-yl)-urea], the IC50 against JNK1 turned out to be 1100 nM. Against the preceding compound, the IC50 is about 8.5-fold higher. `CN1CCN(c2ccc(C(=O)NCc3cn(-c4ccccc4)c4cc(Cl)ccc4c3=O)cn2)CC1` [Example I-88, N-(7-Chloro-4-oxo-1-phenyl-1,4-dihydro-quinolin-3-ylmethyl)-6-(4-methyl-piperazin-1-yl)-nicotinamide] showed an IC50 against JNK1 of 250 nM.

As to `O=C(NCc1cn(-c2ccccc2)c2cc(Cl)ccc2c1=O)c1cnc(N2CCOCC2)nc1` [Example I-56, 2-Morpholin-4-yl-pyrimidine-5-carboxylic acid (7-chloro-4-oxo-1-phenyl-1,4-dihydro-quinolin-3-ylmethyl)-amide], it took 190 nM to reach half-maximal inhibition against JNK1 (IC50). This IC50 and that of the compound before are within 1.5-fold of each other. Same read-out and setting: as for `CC(=O)N1CCC(NC(=O)NCc2cn(-c3ccccc3)c3cc(Cl)ccc3c2=O)CC1` [Example I-198, 1-(1-Acetyl-piperidin-4-yl)-3-(7-chloro-4-oxo-1-phenyl-1,4-dihydro-quinolin-3-ylmethyl)-urea], the figure is 2200 nM; as for `COC(=O)[C@H]1CC[C@@H](NC(=O)NCc2cn(-c3ccccc3)c3cc(Cl)ccc3c2=O)CC1` [Example I-185, 4-[3-(7-Chloro-4-oxo-1-phenyl-1,4-dihydro-quinolin-3-ylmethyl)-ureido]-cyclohexanecarboxylic acid methyl ester], 1100 nM; as for `Cn1ccc(C(=O)NCc2cn(-c3ccccc3)c3cc(Cl)ccc3c2=O)cc1=O` [Example I-54, 1-Methyl-2-oxo-1,2-dihydro-pyridine-4-carboxylic acid (7-chloro-4-oxo-1-phenyl-1,4-dihydro-quinolin-3-ylmethyl)-amide], 670 nM. `COC(=O)c1c(CN(C)C(=O)c2ccc(S(C)(=O)=O)cc2)c(=O)c2ccc(Cl)cc2n1-c1ccccc1` [Example I-211, 7-Chloro-3-{[(4-methanesulfonyl-benzoyl)-methyl-amino]-methyl}-4-oxo-1-phenyl-1,4-dihydro-quinoline-2-carboxylic acid methyl ester] registered an IC50 on JNK1 of 920 nM. On the same count and under the same terms, as for `O=C(NCc1cn(-c2ccccc2)c2cc(Cl)ccc2c1=O)Oc1ccccc1` [Example I-179, (7-Chloro-4-oxo-1-phenyl-1,4-dihydro-quinolin-3-ylmethyl)-carbamic acid phenyl ester], the figure is 2000 nM; as for “1-(4-Chloro-3-fluoro-phenyl)-3-(7-chloro-4-oxo-1-phenyl-1,4-dihydro-quinolin-3-yl-methyl)-urea [Example I-204]”, 1100 nM. Consider `CN(C)C(=O)c1c(CNC(=O)c2ccc(-c3cnco3)cc2)c(=O)c2ccc(Cl)cc2n1-c1ccccc1` [Example I-18, 7-Chloro-3-[(4-oxazol-5-yl-benzoylamino)-methyl]-4-oxo-1-phenyl-1,4-dihydro-quinoline-2-carboxylic acid dimethylamide], for which half-maximal inhibition against JNK1 (IC50) was put at 150 nM. On the same count and under the same terms, as for `O=C(NCc1cn(-c2ccccc2)c2cc(Cl)ccc2c1=O)N1CCN(c2ccccc2)CC1` [Example I-180, 4-Phenyl-piperazine-1-carboxylic acid (7-chloro-4-oxo-1-phenyl-1,4-dihydro-quinolin-3-ylmethyl)-amide], the figure is 120 nM; as for `COC(=O)c1c(CNC(=O)C(C)C)c(=O)c2ccc(Cl)cc2n1-c1ccccc1` [Example I-147, 7-Chloro-3-(isobutyrylamino-methyl)-4-oxo-1-phenyl-1,4-dihydro-quinoline-2-carboxylic acid methyl ester], 200 nM.

The values are drawn from US8501732B2, “Aminomethyl quinolone compounds” (Hoffmann-La Roche Inc., priority 2011, dated 2013).
